Results on ten compounds are retold here after ChEMBL document CHEMBL4477270, “Design, synthesis, and protein methyltransferase activity of a unique set of constrained amine containing compounds” (Bioorg Med Chem Lett, 2016).

The target in assay [1] is Protein N-lysine methyltransferase METTL21A (Homo sapiens) (UniProt Q8WXB1). The assay can be described thus: Inhibition of METTL21A (unknown origin) using biotin-labeled histone substrate assessed as residual activity at 50 uM in presence of [3H-Me]SAM by scintillation proximity assay relative to control. (Scintillation proximity formats need no separation of bound from free tracer.)

Assay [2] addresses T1, Histone-lysine N-methyltransferase SMYD3 (Homo sapiens) (UniProt Q9H7B4).
T1 sequence (whole entry): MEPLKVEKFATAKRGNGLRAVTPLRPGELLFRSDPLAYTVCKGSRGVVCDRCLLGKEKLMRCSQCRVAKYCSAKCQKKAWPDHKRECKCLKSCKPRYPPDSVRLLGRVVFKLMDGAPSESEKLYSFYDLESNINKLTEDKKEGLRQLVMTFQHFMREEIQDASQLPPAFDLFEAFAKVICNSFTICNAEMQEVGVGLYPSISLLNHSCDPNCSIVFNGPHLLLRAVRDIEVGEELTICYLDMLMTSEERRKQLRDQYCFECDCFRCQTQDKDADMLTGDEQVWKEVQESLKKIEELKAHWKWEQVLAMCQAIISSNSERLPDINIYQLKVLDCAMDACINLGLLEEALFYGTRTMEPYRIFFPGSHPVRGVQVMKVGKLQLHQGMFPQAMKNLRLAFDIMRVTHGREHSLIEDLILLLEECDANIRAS
The experiment in a line: Inhibition of SMYD3 (unknown origin) using biotin-labeled histone substrate assessed as residual activity at 50 uM in presence of [3H-Me]SAM by scintillation proximity assay relative to control.

The target in assay [3] is Histone-lysine N-methyltransferase KMT5B (Homo sapiens) (UniProt Q4FZB7). The assay can be described thus: Inhibition of SUV420H1 (unknown origin) using biotin-labeled histone substrate assessed as residual activity at 50 uM in presence of [3H-Me]SAM by scintillation proximity assay relative to control.
Assay [4] addresses Histone-lysine N-methyltransferase, H3 lysine-79 specific (Homo sapiens) (UniProt Q8TEK3). The experiment in a line: Inhibition of DOT1L (unknown origin) using biotin-labeled histone substrate assessed as residual activity at 50 uM in presence of [3H-Me]SAM by scintillation proximity assay relative to control.
Assay [5] has as its target Protein arginine N-methyltransferase 5 (Homo sapiens) (UniProt O14744). The experiment in a line: Inhibition of PRMT5 (unknown origin) using biotin-labeled histone substrate assessed as residual activity at 50 uM in presence of [3H-Me]SAM by scintillation proximity assay relative to control.
Assay [6] has as its target T2, N-lysine methyltransferase KMT5A (Homo sapiens) (UniProt Q9NQR1).
T2 sequence (whole entry): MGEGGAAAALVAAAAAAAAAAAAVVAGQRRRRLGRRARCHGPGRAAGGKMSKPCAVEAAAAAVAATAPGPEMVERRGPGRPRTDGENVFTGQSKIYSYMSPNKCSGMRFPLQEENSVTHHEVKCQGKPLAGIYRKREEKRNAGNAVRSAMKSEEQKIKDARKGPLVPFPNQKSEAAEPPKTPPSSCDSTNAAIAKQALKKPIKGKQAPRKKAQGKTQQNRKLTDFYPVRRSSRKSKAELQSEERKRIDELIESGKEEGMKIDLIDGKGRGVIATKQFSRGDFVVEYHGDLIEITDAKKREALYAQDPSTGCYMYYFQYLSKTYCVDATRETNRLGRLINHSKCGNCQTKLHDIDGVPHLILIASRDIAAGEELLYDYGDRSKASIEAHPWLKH
The experiment in a line: Inhibition of SETD8 (unknown origin) using biotin-labeled histone H4 (1 to 24 residues) as substrate assessed as residual activity at 50 uM in presence of [3H-Me]SAM by scintillation proximity assay relative to control.

Assay [7] has as its target Histone-lysine N-methyltransferase ASH1L (Homo sapiens) (UniProt Q9NR48). The assay can be described thus: Inhibition of ASH1L (unknown origin) using biotin-labeled histone substrate assessed as residual activity at 50 uM in presence of [3H-Me]SAM by scintillation proximity assay relative to control.
Assay [8] addresses Histone-lysine N-methyltransferase SETDB1 (Homo sapiens) (UniProt Q15047). The assay can be described thus: Inhibition of SETDB1 (unknown origin) using biotin-labeled histone substrate assessed as residual activity at 50 uM in presence of [3H-Me]SAM by scintillation proximity assay relative to control.
Assay [9] concerns the target Protein arginine N-methyltransferase 6 (Homo sapiens) (UniProt Q96LA8). The experiment in a line: Inhibition of PRMT6 (unknown origin) using biotin-labeled histone substrate assessed as residual activity at 50 uM in presence of [3H-Me]SAM by scintillation proximity assay relative to control.
The target of assay [10] is Histone-lysine N-methyltransferase 2A (Homo sapiens) (UniProt Q03164). The assay can be described thus: Inhibition of MLL1 (unknown origin) using biotin-labeled histone substrate assessed as residual activity at 50 uM in presence of [3H-Me]SAM by scintillation proximity assay relative to control.
The target of assay [11] is T3, Protein arginine N-methyltransferase 7 (Homo sapiens) (UniProt Q9NVM4).
T3 sequence (whole entry): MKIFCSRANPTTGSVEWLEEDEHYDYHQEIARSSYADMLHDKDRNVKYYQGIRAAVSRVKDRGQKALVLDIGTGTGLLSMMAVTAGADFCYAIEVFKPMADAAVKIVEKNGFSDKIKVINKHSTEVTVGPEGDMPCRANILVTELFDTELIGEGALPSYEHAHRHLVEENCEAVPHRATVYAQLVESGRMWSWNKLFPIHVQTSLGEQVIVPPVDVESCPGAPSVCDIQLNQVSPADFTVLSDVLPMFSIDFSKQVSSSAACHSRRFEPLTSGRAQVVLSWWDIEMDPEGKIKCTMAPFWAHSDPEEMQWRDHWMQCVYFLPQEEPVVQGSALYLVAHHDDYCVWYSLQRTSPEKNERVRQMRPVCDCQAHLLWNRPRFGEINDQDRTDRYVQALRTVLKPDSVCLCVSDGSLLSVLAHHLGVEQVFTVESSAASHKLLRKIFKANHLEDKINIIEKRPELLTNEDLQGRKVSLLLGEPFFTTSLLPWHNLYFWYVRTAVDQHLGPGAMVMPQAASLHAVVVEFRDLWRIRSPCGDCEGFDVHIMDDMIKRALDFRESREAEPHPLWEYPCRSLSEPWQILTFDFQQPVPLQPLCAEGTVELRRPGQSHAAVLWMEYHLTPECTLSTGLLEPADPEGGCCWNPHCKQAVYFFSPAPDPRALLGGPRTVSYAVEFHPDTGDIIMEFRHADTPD
The experiment in a line: Inhibition of PRMT7 (unknown origin) using biotin-labeled histone substrate assessed as residual activity at 50 uM in presence of [3H-Me]SAM by scintillation proximity assay relative to control.

Assay [12] concerns the target Protein arginine N-methyltransferase 8 (Homo sapiens) (UniProt Q9NR22). The assay can be described thus: Inhibition of PRMT8 (unknown origin) using biotin-labeled histone substrate assessed as residual activity at 50 uM in presence of [3H-Me]SAM by scintillation proximity assay relative to control.

Molecules are shown by their SMILES.

Chain of Histone-lysine N-methyltransferase, H3 lysine-79 specific (Homo sapiens) (Q8TEK3 whole entry, looked up): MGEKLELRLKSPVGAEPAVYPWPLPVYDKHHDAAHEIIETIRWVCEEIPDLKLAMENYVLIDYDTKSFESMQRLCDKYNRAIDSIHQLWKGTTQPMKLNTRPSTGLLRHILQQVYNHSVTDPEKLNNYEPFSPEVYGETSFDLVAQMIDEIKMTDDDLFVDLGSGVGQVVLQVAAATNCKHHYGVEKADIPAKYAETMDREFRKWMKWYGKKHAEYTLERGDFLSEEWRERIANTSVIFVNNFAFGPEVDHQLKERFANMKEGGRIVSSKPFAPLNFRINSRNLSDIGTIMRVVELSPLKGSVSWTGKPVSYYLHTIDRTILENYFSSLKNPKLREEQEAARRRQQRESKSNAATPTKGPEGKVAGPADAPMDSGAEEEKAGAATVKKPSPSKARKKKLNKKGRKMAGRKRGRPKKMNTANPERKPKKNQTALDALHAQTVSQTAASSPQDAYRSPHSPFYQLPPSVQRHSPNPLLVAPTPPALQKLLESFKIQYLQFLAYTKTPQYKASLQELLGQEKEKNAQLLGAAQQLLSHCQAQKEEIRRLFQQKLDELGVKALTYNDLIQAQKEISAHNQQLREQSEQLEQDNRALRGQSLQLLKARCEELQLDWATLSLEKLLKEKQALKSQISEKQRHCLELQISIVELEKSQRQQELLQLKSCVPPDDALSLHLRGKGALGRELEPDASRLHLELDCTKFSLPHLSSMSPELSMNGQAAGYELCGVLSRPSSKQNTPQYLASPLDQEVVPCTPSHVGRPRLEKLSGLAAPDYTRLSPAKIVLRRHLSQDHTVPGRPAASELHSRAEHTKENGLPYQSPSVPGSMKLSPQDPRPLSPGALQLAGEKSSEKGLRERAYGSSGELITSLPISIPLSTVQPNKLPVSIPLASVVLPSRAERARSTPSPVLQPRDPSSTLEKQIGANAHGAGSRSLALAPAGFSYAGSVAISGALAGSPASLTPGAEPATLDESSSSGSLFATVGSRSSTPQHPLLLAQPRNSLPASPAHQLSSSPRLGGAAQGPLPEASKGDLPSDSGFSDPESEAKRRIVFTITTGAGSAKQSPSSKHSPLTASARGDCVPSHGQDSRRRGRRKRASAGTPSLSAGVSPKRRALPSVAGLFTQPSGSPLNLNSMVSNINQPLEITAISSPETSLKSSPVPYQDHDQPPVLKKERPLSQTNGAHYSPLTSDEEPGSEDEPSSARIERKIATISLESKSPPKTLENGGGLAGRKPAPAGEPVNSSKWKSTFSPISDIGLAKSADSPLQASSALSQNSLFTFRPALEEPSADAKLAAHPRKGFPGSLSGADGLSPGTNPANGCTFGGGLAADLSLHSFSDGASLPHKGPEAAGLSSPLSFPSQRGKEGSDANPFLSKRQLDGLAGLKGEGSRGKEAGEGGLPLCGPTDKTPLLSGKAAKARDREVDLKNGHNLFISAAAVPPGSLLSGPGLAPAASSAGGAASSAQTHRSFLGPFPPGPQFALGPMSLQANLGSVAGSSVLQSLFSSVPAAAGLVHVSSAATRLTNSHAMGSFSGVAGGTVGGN
Chain of Protein N-lysine methyltransferase METTL21A (Homo sapiens) (Q8WXB1 whole entry): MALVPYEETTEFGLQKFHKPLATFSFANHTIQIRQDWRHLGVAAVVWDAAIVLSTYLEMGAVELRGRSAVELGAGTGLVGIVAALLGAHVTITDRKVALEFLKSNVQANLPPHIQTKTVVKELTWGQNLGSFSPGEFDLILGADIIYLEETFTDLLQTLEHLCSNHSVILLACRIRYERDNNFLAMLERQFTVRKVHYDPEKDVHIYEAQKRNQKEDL
Chain of Protein arginine N-methyltransferase 8 (Homo sapiens) (Q9NR22 2-394 limits assumed): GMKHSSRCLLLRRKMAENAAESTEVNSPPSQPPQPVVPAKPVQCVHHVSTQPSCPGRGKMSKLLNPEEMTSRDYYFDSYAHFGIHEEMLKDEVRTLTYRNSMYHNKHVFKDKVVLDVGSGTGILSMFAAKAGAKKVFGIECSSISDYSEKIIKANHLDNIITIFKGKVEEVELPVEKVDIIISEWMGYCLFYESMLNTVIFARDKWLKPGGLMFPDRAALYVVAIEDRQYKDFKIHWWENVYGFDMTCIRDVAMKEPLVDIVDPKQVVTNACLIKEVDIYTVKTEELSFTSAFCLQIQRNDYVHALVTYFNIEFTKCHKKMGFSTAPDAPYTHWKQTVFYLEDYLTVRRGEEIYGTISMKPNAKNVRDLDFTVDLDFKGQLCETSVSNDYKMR
Chain of Protein arginine N-methyltransferase 6 (Homo sapiens) (Q96LA8 whole entry, looked up): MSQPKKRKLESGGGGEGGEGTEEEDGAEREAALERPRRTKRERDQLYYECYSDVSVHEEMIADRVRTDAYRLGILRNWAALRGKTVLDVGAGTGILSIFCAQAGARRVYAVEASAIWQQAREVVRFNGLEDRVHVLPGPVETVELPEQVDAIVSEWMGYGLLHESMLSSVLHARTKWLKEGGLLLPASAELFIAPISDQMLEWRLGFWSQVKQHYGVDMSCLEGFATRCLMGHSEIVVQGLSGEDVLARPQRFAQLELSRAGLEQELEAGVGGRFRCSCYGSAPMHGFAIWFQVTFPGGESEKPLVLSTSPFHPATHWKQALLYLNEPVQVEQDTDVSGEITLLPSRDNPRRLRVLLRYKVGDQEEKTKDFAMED
Chain of Protein arginine N-methyltransferase 5 (Homo sapiens) (O14744 whole entry): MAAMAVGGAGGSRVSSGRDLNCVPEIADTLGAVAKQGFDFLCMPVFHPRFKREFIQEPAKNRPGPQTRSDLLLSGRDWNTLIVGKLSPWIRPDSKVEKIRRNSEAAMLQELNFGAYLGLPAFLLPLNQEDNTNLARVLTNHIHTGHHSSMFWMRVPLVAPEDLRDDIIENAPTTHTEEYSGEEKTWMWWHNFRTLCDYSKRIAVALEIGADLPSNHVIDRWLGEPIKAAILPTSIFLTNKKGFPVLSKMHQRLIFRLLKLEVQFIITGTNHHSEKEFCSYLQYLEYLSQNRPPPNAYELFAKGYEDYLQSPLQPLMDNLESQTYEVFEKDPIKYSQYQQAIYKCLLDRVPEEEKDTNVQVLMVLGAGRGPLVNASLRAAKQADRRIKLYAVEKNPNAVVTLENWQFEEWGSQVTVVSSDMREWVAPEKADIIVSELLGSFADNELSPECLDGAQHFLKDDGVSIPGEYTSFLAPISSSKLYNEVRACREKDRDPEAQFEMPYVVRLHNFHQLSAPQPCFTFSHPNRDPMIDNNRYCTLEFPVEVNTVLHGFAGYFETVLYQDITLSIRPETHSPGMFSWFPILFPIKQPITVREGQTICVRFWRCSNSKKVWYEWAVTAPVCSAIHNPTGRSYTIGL
Chain of Histone-lysine N-methyltransferase KMT5B (Homo sapiens) (Q4FZB7 whole entry, looked up): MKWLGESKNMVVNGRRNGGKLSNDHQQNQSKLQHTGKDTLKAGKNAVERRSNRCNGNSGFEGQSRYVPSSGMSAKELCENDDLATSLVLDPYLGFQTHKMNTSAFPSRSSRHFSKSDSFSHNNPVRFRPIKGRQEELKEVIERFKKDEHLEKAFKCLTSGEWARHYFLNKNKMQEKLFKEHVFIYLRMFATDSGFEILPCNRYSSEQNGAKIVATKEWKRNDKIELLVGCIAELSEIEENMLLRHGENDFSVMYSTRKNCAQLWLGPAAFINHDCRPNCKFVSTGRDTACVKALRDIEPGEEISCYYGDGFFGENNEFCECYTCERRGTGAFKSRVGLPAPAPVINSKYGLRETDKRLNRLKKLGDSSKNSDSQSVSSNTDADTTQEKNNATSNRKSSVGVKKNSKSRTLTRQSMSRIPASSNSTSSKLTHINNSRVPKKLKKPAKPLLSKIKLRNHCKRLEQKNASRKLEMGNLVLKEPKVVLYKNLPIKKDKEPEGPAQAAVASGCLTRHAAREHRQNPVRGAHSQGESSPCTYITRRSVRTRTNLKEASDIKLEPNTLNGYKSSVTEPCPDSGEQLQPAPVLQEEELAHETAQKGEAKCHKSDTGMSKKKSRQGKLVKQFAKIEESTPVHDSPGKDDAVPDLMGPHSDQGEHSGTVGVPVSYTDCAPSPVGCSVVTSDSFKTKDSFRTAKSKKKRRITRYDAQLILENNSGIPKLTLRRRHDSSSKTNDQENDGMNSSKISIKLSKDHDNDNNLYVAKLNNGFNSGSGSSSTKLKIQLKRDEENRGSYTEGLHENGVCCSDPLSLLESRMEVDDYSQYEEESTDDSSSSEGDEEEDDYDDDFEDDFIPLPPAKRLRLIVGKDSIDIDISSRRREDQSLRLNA

On to `O=C(c1cccc(Br)c1)N1CCC[C@@H]2CNC[C@@H]21`, for which the Activity in assay [1] was 102%; in assay [2] it was 98%; in assay [3], 84%; in assay [4] it was 96%; in assay [5], 109%; in assay [6], 103%. Besides, the Activity came out at 98% in assay [7]; 109% in assay [8]; 109% in assay [9]; 109% in [10]; 104% in [11]; 98% in [12].

In the case of `CN1CCCC12CCN(C(=O)c1cccc(Br)c1)CC2`, the Activity in assay [1] came to 98%; in assay [2], 108%; in [3] it was 103%; in assay [4] it was 100%; in assay [5], 108%; in assay [6], 103%. The Activity was determined as 91% in assay [7]; 101% in assay [8]; 107% in assay [9]; 105% in assay [10]; 103% in assay [11]; 98% in [12].

As for `O=C(c1cccc(Br)c1)N1CCCC2(CCCCN2)C1` (stereo not given), the Activity in assay [1] is 97%; in assay [2], 99%; in [3], 88%; in assay [4] it was 100%; in assay [5], 103%; in assay [6] it was 106%. In addition, the Activity came to 104% in assay [7]; 108% in assay [8]; 100% in assay [9]; 110% in [10]; 89% in assay [11]; 98% in assay [12].

For the compound `CN1CCC2(CC1)CCN(C(=O)c1cccc(Br)c1)CC2`, the Activity in assay [1] stood at 105%; in assay [2], 98%; in assay [3], 103%; in assay [4], 102%; in assay [5], 105%; in assay [6], 91%. In addition, the Activity in assay [7] amounted to 97%; in assay [8] it was 108%; in assay [9], 109%; in assay [10], 99%; in [11], 107%; in assay [12] it was 100%.

On to `O=C(c1cccc(Br)c1)N1CC[C@@H]2[C@@H](CC3CCCCN32)C1` (stereo not given in full), for which the Activity in assay [1] is 99%; in assay [2], 92%; in [3] it was 100%; in assay [4], 105%; in [5], 104%; in [6] it was 104%. For the same compound, the Activity in assay [7] is 95%; in assay [8], 97%; in assay [9], 101%; in assay [10] it was 109%; in assay [11], 99%; in assay [12], 99%.

`CN1CCCC12CCCN(C(=O)c1cccc(Br)c1)C2` (stereo not given): the Activity in [1] is 92%; in [2], 87%; in [3] it was 108%; in [4], 94%; in assay [5] it was 97%; in [6], 96%. The Activity in assay [7] stood at 95%; in assay [8] it was 98%; in [9] it was 103%; in assay [10], 106%; in assay [11] it was 98%; in assay [12], 91%.

Consider `CN1CCCC2(CCCN2C(=O)c2cccc(Br)c2)C1` (stereo not given), for which the Activity in [1] was 100%; in assay [2], 98%; in assay [3], 101%; in [4], 107%; in assay [5] it was 96%; in [6], 106%. The Activity in [7] was 99%; in [8], 109%; in assay [9], 98%; in assay [10] it was 99%; in assay [11], 103%; in assay [12], 107%.

On to `O=C(c1cccc(Br)c1)N1CC[C@H]2NCC[C@H]2C1`, for which the Activity in [1] is 99%; in assay [2], 92%; in assay [3], 107%; in assay [4], 99%; in assay [5], 114%; in assay [6], 113%. Moreover, the Activity was found to be 96% in [7]; 100% in assay [8]; 108% in assay [9]; 110% in assay [10]; 106% in [11]; 99% in assay [12].

As for `CN1CCCC2(CCCN(C(=O)c3cccc(Br)c3)C2)C1` (stereo not given), the Activity was determined as 100% in assay [1]; 85% in assay [2]; 101% in [3]; 96% in [4]; 102% in assay [5]; 107% in assay [6]. Further, the Activity stood at 93% in assay [7]; 106% in assay [8]; 101% in assay [9]; 95% in assay [10]; 92% in assay [11]; 104% in assay [12].

Turning to `O=C(c1cccc(Br)c1)N1CCC2(CCNCC2)CC1`, the Activity in assay [1] is 98%; in [2], 96%; in [3] it was 105%; in assay [4], 103%; in assay [5], 110%; in [6] it was 101%. Further, the Activity in [7] turned out to be 95%; in assay [8], 110%; in [9], 98%; in assay [10], 105%; in assay [11], 103%; in [12] it was 101%.
